From the CheMixHub viscosity set

Test: xn = mol fraction of the nth substance listed

COc1ccccc1 + CCCO
viscosity [mPa·s], 101 kPa
Details | x1 = 0.1207 | x1 = 0.236 | x1 = 0.3462 | x1 = 0.4516 | x1 = 0.5526 | x1 = 0.6495 | x1 = 0.7424 | x1 = 0.8317 | x1 = 0.9175
303 K | 1.448 | 1.219 | 1.138 | 1.075 | 0.9286 | 0.8908 | 0.8219 | 0.8308 | 0.8695
313 K | 1.176 | 1.046 | 0.9616 | 0.8924 | 0.7921 | 0.7847 | 0.7639 | 0.7523 | 0.7392
323 K | 0.9186 | 0.8788 | 0.759 | 0.7338 | 0.6514 | 0.6115 | 0.6084 | 0.5967 | 0.598

COc1ccccc1 + CCCCCCCCO
viscosity [mPa·s], 101.33 kPa
Details | x1 = 0.1001 | x1 = 0.2 | x1 = 0.3002 | x1 = 0.3998 | x1 = 0.5 | x1 = 0.6002 | x1 = 0.7001 | x1 = 0.8002 | x1 = 0.9
303.15 K | 4.86 | 3.795 | 3.074 | 2.432 | 1.966 | 1.576 | 1.217 | 1.108 | 0.968
313.15 K | 3.589 | 2.872 | 2.342 | 1.922 | 1.561 | 1.28 | 1.014 | 0.934 | 0.831
323.15 K | 2.702 | 2.163 | 1.863 | 1.547 | 1.288 | 1.054 | 0.843 | 0.789 | 0.725

c1ccc2ccccc2c1 + CC(C)=O
viscosity [mPa·s], 101 kPa
Details | 298.15 K | 303.15 K | 308.15 K | 313.15 K
x1 = 0.1688 | 0.487 | 0.464 | 0.4428 | 0.4207
x1 = 0.2356 | 0.5618 | 0.5296 | 0.5029 | 0.4781

C1CCOC1 + O=C1CCCO1
viscosity [mPa·s]
Details | 293.15 K | 298.15 K | 303.15 K | 308.15 K | 313.15 K | 318.15 K | 323.15 K
101 kPa, x1 = 0.1009 | 1.614 | 1.496 | 1.39 | 1.297 | 1.212 | 1.136 | 1.068
101 kPa, x1 = 0.2003 | 1.388 | 1.292 | 1.206 | 1.128 | 1.058 | 0.995 | 0.938
101 kPa, x1 = 0.3008 | 1.203 | 1.123 | 1.052 | 0.987 | 0.93 | 0.877 | 0.83
101 kPa, x1 = 0.4004 | 1.046 | 0.98 | 0.92 | 0.866 | 0.818 | 0.773 | 0.733
101 kPa, x1 = 0.4916 | 0.936 | 0.878 | 0.825 | 0.778 | 0.735 | 0.696 | 0.66
101 kPa, x1 = 0.5991 | 0.809 | 0.761 | 0.717 | 0.677 | 0.641 | 0.608 | 0.578
101 kPa, x1 = 0.6997 | 0.706 | 0.667 | 0.631 | 0.598 | 0.567 | 0.537 | 0.511
101 kPa, x1 = 0.8 | 0.62 | 0.589 | 0.56 | 0.531 | 0.506 | 0.482 | 0.461
101 kPa, x1 = 0.8997 | 0.567 | 0.538 | 0.511 | 0.485 | 0.463 | 0.441 | 0.415
101.33 kPa, x1 = 0.1077 | 1.583 | 1.462 | – | – | – | – | –
101.33 kPa, x1 = 0.3124 | 1.172 | 1.089 | – | – | – | – | –
101.33 kPa, x1 = 0.701 | 0.682 | 0.641 | – | – | – | – | –
101.33 kPa, x1 = 0.8954 | 0.539 | 0.51 | – | – | – | – | –

COc1ccccc1 + C1CCCCC1
viscosity [mPa·s]
Details | 298.15 K | 303.15 K | 308.15 K | 313.15 K
101 kPa, x1 = 0.1016 | 0.8187 | 0.7586 | 0.7009 | 0.6496
101 kPa, x1 = 0.1993 | 0.7856 | 0.7308 | 0.68 | 0.6314
101 kPa, x1 = 0.3005 | 0.77 | 0.7174 | 0.668 | 0.6223
101 kPa, x1 = 0.3997 | 0.7696 | 0.7169 | 0.6674 | 0.6228
101 kPa, x1 = 0.5014 | 0.7849 | 0.7317 | 0.6829 | 0.637
101 kPa, x1 = 0.6014 | 0.803 | 0.7509 | 0.7001 | 0.6546
101 kPa, x1 = 0.7043 | 0.8378 | 0.7843 | 0.7318 | 0.6823
101 kPa, x1 = 0.8 | 0.8834 | 0.8216 | 0.7693 | 0.7163
101 kPa, x1 = 0.8992 | 0.9338 | 0.87 | 0.8092 | 0.7511
101.3 kPa, x1 = 0.0224 | – | 0.799 | – | –
101.3 kPa, x1 = 0.0385 | – | 0.783 | – | –
101.3 kPa, x1 = 0.0614 | – | 0.773 | – | –
101.3 kPa, x1 = 0.4829 | – | 0.708 | – | –
101.3 kPa, x1 = 0.5172 | – | 0.714 | – | –
101.3 kPa, x1 = 0.5409 | – | 0.72 | – | –
101.3 kPa, x1 = 0.5731 | – | 0.729 | – | –
101.3 kPa, x1 = 0.7744 | – | 0.792 | – | –
101.3 kPa, x1 = 0.8952 | – | 0.846 | – | –
101.3 kPa, x1 = 0.9478 | – | 0.884 | – | –

C1CCOC1 + c1ccccc1
303.15 K, 101.33 kPa
Details | viscosity [mPa·s]
x1 = 0.0997 | 0.547
x1 = 0.1996 | 0.536
x1 = 0.3017 | 0.524
x1 = 0.3993 | 0.514
x1 = 0.5018 | 0.504
x1 = 0.6038 | 0.495
x1 = 0.7011 | 0.484
x1 = 0.8026 | 0.471
x1 = 0.8977 | 0.457

COc1ccccc1 + CS(C)=O
viscosity [mPa·s], 101.3 kPa
Details | x2 = 0.1034 | x2 = 0.203 | x2 = 0.3049 | x2 = 0.4058 | x2 = 0.5049 | x2 = 0.6063 | x2 = 0.7044 | x2 = 0.8039 | x2 = 0.9011
298.15 K | 1.049 | 1.113 | 1.184 | 1.259 | 1.342 | 1.443 | 1.544 | 1.666 | 1.808
303.15 K | 0.968 | 1.024 | 1.104 | – | 1.229 | 1.32 | 1.408 | 1.517 | 1.641
308.15 K | 0.899 | 0.949 | 1.008 | 1.068 | 1.133 | 1.214 | 1.292 | 1.388 | 1.5
